Source: patent US8586638B2, “Parakeratosis inhibitor and skin preparation for external use” (priority 2003, dated 2013)
Values joined by “and” are separate entries in the source; they are usually repeats but may differ in a detail not shown here. Equal values may be shown once. Where a SMILES comes first, the peptide text is derived from it.

Columns and labels:
[1] = test system: pores on the cheek of healthy male subjects; test: Effect of shrinking human pores: replica evaluation of cheek pores; format: in vivo; settings: for Replica Evaluation (mean of n = 5), difference of pore size score before/after application: twice a day for a month, cheek; for effect of pore-shrinking (conclusion from Table 5): fifth embodiment
Procedure: An experiment of application of sample twice a day for a month on the cheek of healthy male subjects, was conducted with each group consisting of 5 individuals. 3 weight % solution of the glycine derivatives in accordance with the invention 1 (including 15 weight % of ethanol) was prepared. pH was regulated to the range between 7.0 and 7.5, by using hydrochloric acid and/or sodium hydroxide. Control was 15 weight % ethanol solution. Said 3 weight % solution was applied to one side and said control solution was applied to the other side.
Replicas were prepared prior to and after the application to observe the change of form of pores in the same spot under a three-dimensional laser scanning microscope. The size of pores was evaluated visually 13 steps from 1 to 13 (larger number indicates larger pore size), and the difference between the resulted evaluations before/after the application experiment was then calculated to study the effectiveness of each specimen.
An experiment of application of sample twice a day for a month on the cheek of healthy male subjects, was conducted with each group consisting of 5 individuals. 3 weight % solution of the glycine derivatives and the salts thereof as well as the aminosulfuric acid derivatives and the salts thereof in accordance with the invention 2 (including 15 weight % of ethanol), 2 weight % solution of ACES (including 15 weight % of ethanol), 3 weight % solution of CAPS (including 15 weight % of ethanol), and 3 weight % solution of CAPSO (including 15 weight % of ethanol) were prepared. pH was regulated to the range between 7.0 and 7.5, by using hydrochloric acid and/or sodium hydroxide. 15 weight % ethanol solution was used as control. Said sample solutions was applied to one side, and said control solution was applied to the other side.

[2] = test system: parakeratosis and skin roughness caused by oleic acid on the back of hairless mice; test: Parakeratosis inhibition effect test: oleic acid applied to the back of hairless mice, visual skin roughness and parakeratosis level; format: in vivo, hairless mice (HR-1); set-up: key to Evaluation Visual (mean of 4 mice), skin roughness: 0.0 = no roughness, 2.0 = control application; 0.25 steps; settings: for Evaluation Parakeratosis (mean of 4 mice): range 1.0 to 3.0, higher = severer, control 2.0; for Evaluation Visual (mean of 4 mice), skin roughness: score 0.0 no roughness, 2.0 control; for effect of inhibiting parakeratosis (conclusion from Table 4): fourth embodiment
Procedure: A 3 weight % water solution (including 30 weight % ethanol) was prepared as the evaluation specimen of the glycine derivatives in accordance with the invention 1. The pH was regulated to the range between 7.0 to 7.5, by using hydrochloric acid and sodium hydroxide. When the solubility was low, the solution was adjusted accordingly.
100 microliters of 10 weight % oleic acid (solvent: ethanol) was applied to the back of hairless mice (HR-1, Hoshino laboratory animals). Thereafter, 100 microliters of sample solution was applied (glycine derivatives in accordance with said invention 1) at each time. This procedure was repeated for 3 days. The day after the application, the skin condition of the backs was observed by using a CCD camera to evaluate the skin roughness (stratified ablation of the skin surface stratum corneum and red spots). The skin condition was evaluated visually, with scoring the skin condition of control application to 2.0 and the skin condition of no roughness to 0.0, in a 0.25 point step in response to the skin condition. At the same time, the skin surface stratum corneum of the back of hairless mice was peeled off by using a tape for staining the nucleus with haematoxylin to observe the degrees of parakeratosis (parakeratosis level) and evaluate in 0.25 step in the range from 1.0 to 3.0. The higher evaluation points indicates the larger number of parakeratotic corneocytes count, i.e., severer parakeratosis.
The samples to be evaluated of the glycine derivatives and the salts thereof as well as the aminosulfuric acid derivatives and the salts thereof in accordance with the invention 2 were prepared mainly 3 weight % solution (including 30 weight % ethanol, excluding Hydantoic acid and ACES which include 20 weight % ethanol). pH was regulated by using hydrochloric acid or sodium hydroxide to be 7.0 to 7.5. When the solubility was low, then the solution was prepared accordingly.
100 microliters of 10 weight % oleic acid (solvent: ethanol) was applied to the back of Hairless mice (HR-1, Hoshino laboratory animals) Thereafter, 100 microliters of sample solution (glycine derivatives in accordance with the invention 2) was applied thereon at each time. This procedure was repeated for 3 days. The day after the application, the skin condition of the backs was observed by using a CCD camera to evaluate the skin roughness (stratified ablation of the skin surface stratum corneum and red spots). The skin condition was evaluated visually, with scoring the skin condition of control application to 2.0 and the skin condition of no roughness to 0.0, in a 0.25 point step in response to the skin condition. At the same time, the skin surface stratum corneum of the back of hairless mice was peeled off by using a tape for staining the nucleus with haematoxylin to observe the degrees of parakeratosis and evaluate in 0.25 step in the range from 1.0 to 3.0. The higher evaluation points indicates the larger number of parakeratotic corneocytes count, i.e., severer parakeratosis.

[3] = test system: skin surface stratum corneum of human cheek; test: Parakeratosis inhibition effect on human skin by N-ethylglycine: number of nuclear cells of skin surface stratum corneum; format: in vivo; settings: 3 weight % N-ethylglycine side against control side (15 weight % ethanol); area 12 mm by 34 mm; FIG. 2
Source text: (§1) In the pore-shrinking effect test on human skin as described in the embodiment 5, the application of N-ethylglycine was further studied about the amelioration of parakeratosis by measuring the number of nuclear cell of skin surface stratum corneum, obtained by means of a tape. Replica was used to actually measure the pore size within the area of 3.34 mm by 3.34 mm to evaluate the pore-shrinking effect.
(§2) More specifically, the skin surface stratum corneum was sampled by means of carton tape (Nichiban, Co. Ltd.) only after the application of sample, Hoechst 33342 solution dissolved in PBS to 0.1 mg/ml was then added, and after the sample was placed in a dark place for 20 minutes, the number of nuclear cells within the area of 12 mm by 34 mm by using a fluorescent microscope. For the replicas made by using silflo (Flexico, Co. Ltd.) was measured before and after the application to capture three-dimensional surface form within the same area (3.34 mm by 3.34 mm) with a confocal microscope (HD100D, Lasertech) to measure and compare the size of pores (surface area value).

[4] = test system: skin roughness caused by oleic acid on the back of hairless mice; test: Inhibitory effect on skin roughness by the application of oleic acid (TEWL value); format: in vivo, hairless mice (HR-1); set-up: ΔTEWL: unit not given here; settings: for decrease of delta-TEWL value as compared to the control solution (conclusion from Table 6): hairless mice, oleic acid, seventh embodiment; for ΔTEWL: sample 3 weight %, after 10 weight % oleic acid, 3 days, four mice per group, larger = severer roughness, control 12.0
Procedure: To study the inhibitory effect on the skin roughness by the application of oleic acid by the glycine derivatives and the salts thereof as well as the aminosulfuric acid derivatives and the salts thereof in accordance with the invention 2, the […] (TEWL value) before and after the application was measured to compare the difference therebetween with the value of control (control solution) in order to determine the effect. The preparation of samples and the application procedure were in accordance with the embodiment 4. The TEWL value was measured by means of TEWA meter TM210 (Courage+Khazaka Inc.).
100 microliters of 10 weight % oleic acid (solvent: ethanol) was applied to the back of hairless mice (HR-1, four in each group). Thereafter, 100 microliters of sample solutions (glycine derivatives and the salts thereof as well as the aminosulfuric acid derivatives and the salts thereof) in accordance with the invention 2 were applied at each time. This procedure was repeated for 3 days. The day after the application, TEWL value of the back of mice was measured and the values were averaged. The larger delta-TEWL value indicates severer aggravation of skin roughness.

[5] = test system: pores on the cheek of healthy male subjects; test: Pore-shrinking effect on human skin by N-ethylglycine: pore surface area by replica analysis; format: in vivo; settings: 3 weight % N-ethylglycine side; control 92%; area 3.34 mm by 3.34 mm; FIG. 3
Source text: as §1, §2

[6] = test system: pores (conical portion) on the cheek of healthy adult males; test: Effect of shrinking human pores by glycylglycine: conical portion surface area from cheek replica; format: in vivo
Procedure: Since we obtained a good result from glycylglycine in the embodiment 2, we conducted an application experiment of glycylglycine three times a day (0.1 milliliter each) on the cheek of 21 healthy adult males (age of 20s to 50s, average 40.4 years old) for a period of one month. 1.6% (w/w) glycylglycine solution (pH regulated to 7.0) including 15% (w/w) ethanol, and 15% (w/w) ethanol solution (control) was prepared, for applying the same to each one side cheek.
By obtaining a cheek replica (Silflo) before and after the continuous application, the surface area of conical portion was measured by a three-dimensional analysis system (Okuri et al., Japan Society of Dermatology Annual Meeting Program/Abstract, 2004, 104, pp. 601) by means of wide view confocal microscope HD100D (lasertech).
For the surface area recognized as pore portion within the replica measuring area of 3.34 mm by 3.34 mm, the conical portion surface area (mm2) and the ratio thereof before and after the application is shown in Table 3. From Table 3, The ratio among the panel that the surface area of glycylglycine applied side was decreased more than 10% when compared to the control application side (glycylglycine side was shrunk), the panel that the variation was within 10% and no noticeable change observed (no change), and the panel that the control application side was decreased more than 10% (other side was shrunk) was 13:5:3.
When averaging the surface area ratio before and after the application, the side of control solvent solution was 102%, while the side of glycylglycine was reduced to 89%. By evaluating this surface area ratio with t-analysis, we obtained p=0.019, indicating significant shrinkage of pore area in the glycylglycine applied side (see FIG. 1).

[7] = test system: pores (conical portion) on the cheek of healthy adult males; test: as above; format: in vivo; settings: glycylglycine applied side compared with ethanol applied side
[8] = Table 5, 3.0 weight % solution (15 weight % ethanol), control 0.3
[9] = Table 4, sample 3 weight % in aqueous 30 weight % ethanol (hydantoic acid: 20 weight % ethanol)
[10] = sample 3 weight % in aqueous 30 weight % ethanol, after 10 weight % oleic acid, 3 days

| SMILES | Replica Evaluation (mean of n = 5), difference of pore size score before/after application [1, 8] | effect of pore-shrinking (conclusion from Table 5) ([1]; human cheek) | Evaluation Parakeratosis (mean of 4 mice) [2, 9] | Evaluation Visual (mean of 4 mice), skin roughness [2, 9] | effect of inhibiting parakeratosis (conclusion from Table 4) ([2]; hairless mice, oleic acid) | number of nuclear cells of skin surface stratum corneum [3] | decrease of delta-TEWL value as compared to the control solution (conclusion from Table 6) [4] | ΔTEWL [4] | surface area of pores, average as compared to pre-application status [5] | Replica Evaluation (mean of n = 5), difference of pore size score before/after application ([1]; 3 weight % solution (15 weight % ethanol), 13 steps, larger = larger pore, control 0.2) | pore-shrinking effect (conclusion from Table 2) ([1]; human cheek, second embodiment) | effect of inhibiting parakeratosis (conclusion from Table 1) ([2]; hairless mice, oleic acid, first embodiment) | Evaluation Parakeratosis (mean of 4 mice) [2, 10] | Evaluation Visual (mean of 4 mice), skin roughness [2, 10] | average surface area ratio before and after the application ([6]; glycylglycine side, control solvent side 102%, p=0.019) | conical portion surface area after application ([6]; individual panels #1-21, 1.6% (w/w) glycylglycine, 15% ethanol, three times a day, one month, area 3.34 mm by 3.34 mm) | conical portion surface area ratio after/before ([6]; individual panels #1-21, 1.6% (w/w) glycylglycine, three times a day, one month) | conical portion surface area ratio after/before, mean ([6]; mean of 21 panels (S.D. 0.2597), 1.6% (w/w) glycylglycine, control mean 1.017) | photographic evaluation of conspicuous pores [7] |
| --- | --- | --- | --- | --- | --- | --- | --- | --- | --- | --- | --- | --- | --- | --- | --- | --- | --- | --- | --- |
| CCNCC(=O)O [N-ethylglycine] | −1.4 | demonstrated the effect of pore-shrinking | 1.2 | 1.3 | have the effect of inhibiting parakeratosis | fewer number of nuclear cells | significant decrease of delta-TEWL value | 9.0 | 73% | – | – | – | – | – | – | – | – | – | – |
| NCC(=O)NCC(=O)O [glycylglycine] (H-Gly-Gly-OH) | – | – | – | – | – | – | – | – | – | −1.0 | pore-shrinking effect was observed | have the effect of inhibiting parakeratosis | 1.2 | 1.2 | 89% | 1.2057 mm^2 and 1.3727 mm^2 and 1.5166 mm^2 and 1.4427 mm^2 and 1.2368 mm^2 and 0.6078 mm^2 and 0.3675 mm^2 and 0.4880 mm^2 and 1.1250 mm^2 and 0.5977 mm^2 and 1.3739 mm^2 and 0.2691 mm^2 and 1.2348 mm^2 and 1.2053 mm^2 and 1.0498 mm^2 and 0.3669 mm^2 and 0.6778 mm^2 and 1.0541 mm^2 and 0.5801 mm^2 and 0.6728 mm^2 and 1.3879 mm^2 | 0.8948 and 0.9818 and 1.0512 and 1.0627 and 1.0535 and 0.7494 and 0.5279 and 0.7405 and 0.7878 and 0.6357 and 0.8594 and 0.4111 and 1.3932 and 0.8940 and 1.2831 and 0.5594 and 0.7676 and 0.8700 and 1.2931 and 0.7612 and 1.0131 | 0.8853 | ameliorated |
| O=C(O)CNc1ccccc1 [N-phenylglycine] | −1.0 | demonstrated the effect of pore-shrinking | 1.2 | 1.3 | have the effect of inhibiting parakeratosis | – | significant decrease of delta-TEWL value | 7.9 | – | – | – | – | – | – | – | – | – | – | – |
| O=S(=O)(O)CCCNC1CCCCC1 [CAPS, 3-(cyclohexyl-amino)propane sulfonic acid] | −1.4 | demonstrated the effect of pore-shrinking | 1.2 | 1.3 | have the effect of inhibiting parakeratosis | – | significant decrease of delta-TEWL value | 8.1 | – | – | – | – | – | – | – | – | – | – | – |
| O=S(=O)(O)CC(O)CNC1CCCCC1 (stereo not shown) [CAPSO, 3-(cyclohexyl-amino)-2-hydroxy-propane-sulfonic acid] | −1.6 | demonstrated the effect of pore-shrinking | 1.1 | 1.3 | have the effect of inhibiting parakeratosis | – | significant decrease of delta-TEWL value | 7.9 | – | – | – | – | – | – | – | – | – | – | – |
